From patent EP0889886B1, “NOVEL PHENANTHRIDINES SUBSTITUTED IN THE 6 POSITION” (ALTANA Pharma AG, priority 1996, dated 1997)
Structures can show the parent of a compound that is named as a salt.

system: PDE IV; assay: Inhibition of PDE IV activity (method of Bauer and Schwabe, adapted to microtiter plates); assay type: biochemical; details: Hemmung der PDE IV-Aktivität
Method: Hierbei erfolgt im ersten Schritt die PDE-Reaktion. In einem zweiten Schritt wird das entstandene 5'-Nukleotid durch eine 5'-Nukleotidase des Schlangengiftes von Crotalus Atrox zum ungeladenen Nukleosid gespalten. Im dritten Schritt wird das Nukleosid auf lonenaustauschsäulen vom verbliebenen geladenen Substrat getrennt. Die Säulen werden mit 2 ml 30 mM Ammoniumformiat (pH 6,0) direkt in Minivials eluiert, in die noch 2 ml Szintillatorflüssigkeit zur Zählung gegeben wird.

Compared with COc1cc2c(cc1OC)[C@H]1CCCC[C@H]1N=C2c1ccc(NS(=O)(=O)c2ccc(C)cc2)cc1 (racemic) [Verbindung 1, (+/-)-cis-8,9-Dimethoxy-6-(4-p-toluolsulfonamidophenyl)-1,2,3,4,4a,10b-hexahydrophenanthridin], COc1cc2c(cc1OC)C1CCCCC1N=C2c1ccc(NS(=O)(=O)c2ccc(C)cc2)cc1 (racemic) [Verbindung 9, (+/-)-trans-8,9-Dimethoxy-6-(4-p-toluolsulfonamidophenyl)-1,2,3,4,4a,10b-hexahydrophenanthridin-hydrochtorid] is lower in “-log IC50” value: 7.73 for the first, 6.17 for the second.

First: CCOc1cc2c(cc1OCC)[C@H]1CCCC[C@H]1N=C2c1ccc(NS(=O)(=O)c2ccc(C)cc2)cc1 (racemic) [Verbindung 2, (+/-)-cis-8,9-Diethoxy-6-(4-p-toluolsulfonamidophenyl)-1,2,3,4,4a,10b-hexahydrophenanthridin]
Second: CCOc1cc2c(cc1OC)C(c1ccc(NS(=O)(=O)c3ccc(C)cc3)cc1)=N[C@@H]1CCCC[C@H]21 (racemic) [Verbindung 20, (+/-)-cis-9-Ethoxy-8-methoxy-6-(4-p-toluolsulfonamidophenyl)-1,2,3,4,4a,10b-hexahydrophenanthridin]
The “-log IC50” value of the first is lower: 8.39 for the first, 9.05 for the second.

Going from COc1cc2c(cc1OC1CCCC1)[C@H]1CCCC[C@H]1N=C2c1ccc(NS(=O)(=O)c2ccc(C)cc2)cc1 (racemic) [Verbindung 3, (+/-)-cis-9-Cyclopentyloxy-8-methoxy-6-(4-p-toluolsulfonamidophenyl)-1,2,3,4,4a,10bhexahydrophenanthridin] to COc1cc2c(cc1OC1CCCC1)C(c1ccc(NS(=O)(=O)c3ccc(C)cc3)cc1)=N[C@@H]1CCCC[C@H]21 (racemic) [Verbindung 4, (+/-)-cis-8-Cyclopentyloxy-9-methoxy-6-(4-p-toluolsulfonamidophenyl)-1,2,3,4,4a,10bhexahydrophenanthridin], the “-log IC50” value falls from 7.76 to 6.12.

Compared with COc1cc2c(cc1OC)[C@@H]1CCCC[C@@H]1N=C2c1ccc([N+](=O)[O-])cc1 (racemic) [Verbindung 5, (+/-)-cis-8,9-Dimethoxy-6-(4-nitrophenyl)-1,2,3,4,4a,10b-hexahydrophenanthridin], CCOc1cc2c(cc1OC)C(c1ccc([N+](=O)[O-])cc1)=N[C@H]1CCCC[C@@H]21 (racemic) [Verbindung 21, (+/-)-cis-9-Ethoxy-8-methoxy-6-(4-nitrophenyl)-1,2,3,4,4a,10b-hexahydrophenanthridin] is higher in “-log IC50” value: 7.22 for the first, 8.46 for the second.

Going from COc1cc2c(cc1OC)[C@H]1CCCC[C@H]1N=C2c1c(Cl)cccc1Cl (racemic) [Verbindung 6, (+/-)-cis-8,9-Dimethoxy-6-(2,6-dichlorphenyl)-1,2,3,4,4a,10b-hexahydrophenanthridin] to COc1ccc(C2=N[C@H]3CCCC[C@H]3c3cc(OC)c(OC)cc32)cc1OC (racemic) [Verbindung 7, (+/-)-cis-8,9-Dimethoxy-6-(3,4-dimethoxyphenyl)-1,2,3,4,4a,10b-hexahydrophenanthridin], the “-log IC50” value falls from 6.77 to 6.44.

Compared with COc1cc2c(cc1OC)[C@H]1CC(C)=C(C)C[C@H]1N=C2c1ccc(NS(=O)(=O)c2ccc(C)cc2)cc1 (racemic) [Verbindung 8, (+/-)-cis-8,9-Dimethoxy-2,3-dimethyl-6-(4-p-toluolsulfonamidophenyl)-1,4,4a,10b-tetrahydrophenanthridin], COc1cc2c(cc1OC)C1CC=CCC1N=C2c1ccc(NS(=O)(=O)c2ccc(C)cc2)cc1 (racemic) [Verbindung 10, (+/-)-trans-8,9-Dimethoxy-6-(4-p-toluolsulfonamidophenyl)-1,4,4a,10b-tetrahydrophenanthridin-hydrochlorid] is lower in “-log IC50” value: 6.91 for the first, 6.10 for the second.

First: COc1cc2c(cc1OC)C1C3CCC(CC3)C1N=C2c1ccc(NS(=O)(=O)c2ccc(C)cc2)cc1 (racemic) [Verbindung 12, (+/-)-trans-8,9-Dimethoxy-1,4-ethano-6-(4-p-toluolsulfonamidophenyl)-1,2,3,4,4a,10bhexahydrophenanthridin]
Second: COc1cc2c(cc1OC)[C@H]1CCCC[C@H]1N=C2c1ccc(N(C(C)=O)S(=O)(=O)c2ccc(C)cc2)cc1 (racemic) [Verbindung 34, (+/-)-cis-8,9-Dimethoxy-6-[(N-acetyl-4-p-toluolsulfonamido)phenyl]-1,2,3,4,4a,10b-hexahydrophenanthridin]
The “-log IC50” value of the first is lower: 5.77 for the first, 7.42 for the second.

First: CCOc1cc2c(cc1OCC)[C@@H]1CCCC[C@@H]1N=C2c1ccc(OC(C)=O)cc1 (racemic) [Verbindung 13, (+/-)-cis-6-(4-Acetoxyphenyl)-8,9-diethoxy-1,2,3,4,4a,10b-hexahydrophenanthridin]
Second: CCOc1cc2c(cc1OCC)[C@H]1CCCC[C@H]1N=C2c1ccc(F)cc1 (racemic) [Verbindung 16, (+/-)-cis-8,9-Diethoxy-6-(4-fluorphenyl)-1,2,3,4,4a,10b-hexahvdrophenanthridin]
The “-log IC50” value of the first is higher: 8.43 for the first, 7.93 for the second.

CCOc1cc2c(cc1OCC)[C@@H]1CCCC[C@@H]1N=C2c1ccc(Cc2ccccc2)cc1 (racemic) [Verbindung 14, (+/-)-cis-6-(4-Benzylphenyl)-8,9-diethoxy-1,2,3,4,4a,10b-hexahydrophenanthridin] and CCOc1cc2c(cc1OCC)[C@@H]1CCCC[C@@H]1N=C2c1ccc(-c2ccccc2)cc1 (racemic) [Verbindung 15, (+/-)-cis-6-Biphenyl-8,9-diethoxy-1,2,3,4,4a,10b-hexahydrophenanthridin] are within 0.2 log units of each other in “-log IC50” value: 8.08 for the first, 7.98 for the second.

CCOc1cc2c(cc1OCC)[C@H]1CCCC[C@H]1N=C2c1ccc(C(F)(F)F)cc1 (racemic) [Verbindung 17, (+/-)-cis-8,9-Diethoxy-7-(4-trifluormethylphenyl)-1,2,3,4,4a,10b-hexahydrophenanthridin] and CCOc1cc2c(cc1OCC)[C@H]1CCCC[C@H]1N=C2c1ccc(OC(F)(F)F)cc1 (racemic) [Verbindung 19, (+/-)-cis-8,9-Diethoxy-6-(4-trifluormethoxyphenyl)-1,2,3,4,4a,10b-hexahydrophenanthridin] are within 0.2 log units of each other in “-log IC50” value: 8.00 for the first, 7.97 for the second.

CCOc1cc2c(cc1OCC)[C@@H]1CCCC[C@@H]1N=C2c1ccc(C#N)cc1 (racemic) [Verbindung 18, (+/-)-cis-8,9-Diethoxy-6-(4-cyanophenyl)-1,2,3,4,4a,10b-hexahydrophenanthridin] and CCOc1cc2c(cc1OCC)[C@@H]1CCCC[C@@H]1N=C2c1ccncc1.Cl.Cl (racemic) [Verbindung 24, (+/-)-cis-8,9-Diethoxy-6-(pyrid-4-yl)-1,2,3,4,4a,10b-hexahydrophenanthridin-dihydrochlorid] are within 0.2 log units of each other in “-log IC50” value: 8.24 for the first, 8.08 for the second.

First: CCOc1cc2c(cc1OC)C(c1ccc(S(C)(=O)=O)cc1)=N[C@H]1CCCC[C@@H]21 (racemic) [Verbindung 22, (+/-)-cis-9-Ethoxy-8-methoxy-6-(4-methansulfonylphenyl)-1,2,3,4,4a,10b-hexahydrophenanthridin]
Second: CCOc1cc2c(cc1OC)C(c1ccc(N)cc1)=N[C@H]1CCCC[C@@H]21 (racemic) [Verbindung 29, (+/-)-cis-9-Ethoxy-8-methoxy-6-(4-aminophenyl)-1,2,3,4,4a,10b-hexahydrophenanthridin]
The “-log IC50” value of the first is higher: 8.66 for the first, 7.69 for the second.

Going from CCOc1cc2c(cc1OC)C(c1ccc(NS(=O)(=O)c3ccc(C(=O)OC)cc3)cc1)=N[C@@H]1CCCC[C@H]21 (racemic) [Verbindung 23, (+/-)-cis-9-Ethoxy-8-methoxy-6-[4-(4-methoxycarbonylphenyl)sulfonamidophenyl]-1,2,3,4,4a,10b-hexahvdrophenanthridin Hydrochlorid] to CCOc1cc2c(cc1OC)C(c1ccc(NC(C)=O)cc1)=N[C@H]1CCCC[C@@H]21 (racemic) [Verbindung 32, (+/-)-cis-9-Ethoxy-8-methoxy-6-(4-acetamidophenyl)-1,2,3,4,4a,10b-hexahydrophenanthridin], the “-log IC50” value falls from 8.70 to 8.38.

Compared with CCOc1cc2c(cc1OCC)[C@@H]1CCCC[C@@H]1N=C2c1cccnc1.Cl (racemic) [Verbindung 25, (+/-)-cis-8,9-Diethoxy-6-(pyrid-3-yl)-1,2,3,4,4a,10b-hexahydrophenanthridin-hydrochlorid], CCOc1cc2c(cc1OCC)[C@H]1CCCC[C@H]1N=C2c1ccc(Cl)nc1 (racemic) [Verbindung 26, (+/-)-cis-8,9-Diethoxy-6-(2-chiorpyrid-5-yl)-1,2,3,4,4a,10b-hexahydrophenanthridin] is higher in “-log IC50” value: 7.96 for the first, 8.41 for the second.

Compared with CCOc1cc2c(cc1OCC)[C@@H]1CCCC[C@@H]1N=C2c1ccc(O)nc1 (racemic) [Verbindung 27, (+/-)-cis-8,9-Diethoxy-6-(2-hydroxypyrid-5-yl)-1,2,3,4,4a,10b-hexahydrophenanthridin], CCOc1cc2c(cc1OCC)[C@H]1CCCC[C@H]1N=C2c1ccc(N(C(C)=O)S(=O)(=O)c2ccc(C)cc2)cc1 (racemic) [Verbindung 35, (+/-)-cis-8,9-Diethoxy-6-[(N-acetyl-4-p-toluolsulfonamido]phenyl]-1,2,3,4,4a,10b-hexahydrophenanthridin] is higher in “-log IC50” value: 6.66 for the first, 7.81 for the second.

COc1cc2c(cc1OC)[C@@H]1CCCC[C@@H]1N=C2c1ccc(N(S(=O)(=O)c2ccc([N+](=O)[O-])cc2)S(=O)(=O)c2ccc([N+](=O)[O-])cc2)cc1 (racemic) [Verbindung 30, (+/-)-cis-8,9-Dimethoxy-6-[4-bis(p-nitrophenylsulfonyl)aminophenyl]-1,2,3,4,4a,10b-hexahydrophenanthridin] and COc1cc2c(cc1OC)[C@H]1CCCC[C@H]1N=C2c1ccc(N(S(=O)(=O)c2ccc(C)cc2)S(=O)(=O)c2ccc(C)cc2)cc1 (racemic) [Verbindung 33, (+/-)-cis-8,9-Dimethoxy-6-[4-bis(p-toluolsulfonyl)aminophenyl]-1,2,3,4,4a,10b-hexahydrophenanthridin] are within 0.2 log units of each other in “-log IC50” value: 7.36 for the first, 7.27 for the second.

COc1cc2c(cc1OC)[C@@H]1CCCC[C@@H]1N=C2c1ccc(NC(C)=O)cc1 (racemic) [Verbindung 31, (+/-)-cis-8,9-Dimethoxy-6-(4-acetamidophenyl)-1,2,3,4,4a,10b-hexahydrophenanthridin] was tested, and the “-log IC50” value was 7.30.
